Assay results: PMC2710618 (Biochemistry, 2008)
Where “and” joins values, the source holds several entries; their conditions need not be identical. Equal values may be shown once. Entries after “also recorded” stand apart in the source; their conditions may differ. Read-outs that look alike come from different tables or passages of the source.

Assays:
[1] = target: T1, B. anthracis OSB-CoA synthetase (Bacillus anthracis, UniProt Q81K97); assay: biochemical; type: biochemical; conditions: for Km: read-out: Apparent Km
[2] = target: T1, B. anthracis OSB-CoA synthetase; assay: biochemical; type: binding
[3] = target: T1, B. anthracis OSB-CoA synthetase; assay: biochemical; type: biochemical; conditions: for Km: read-out: Km of varied substrate
[4] = tested on: B. anthracis ∆ANR strain; type: cell-based, Bacillus anthracis

T1 sequence (Q81K97 whole entry, looked up): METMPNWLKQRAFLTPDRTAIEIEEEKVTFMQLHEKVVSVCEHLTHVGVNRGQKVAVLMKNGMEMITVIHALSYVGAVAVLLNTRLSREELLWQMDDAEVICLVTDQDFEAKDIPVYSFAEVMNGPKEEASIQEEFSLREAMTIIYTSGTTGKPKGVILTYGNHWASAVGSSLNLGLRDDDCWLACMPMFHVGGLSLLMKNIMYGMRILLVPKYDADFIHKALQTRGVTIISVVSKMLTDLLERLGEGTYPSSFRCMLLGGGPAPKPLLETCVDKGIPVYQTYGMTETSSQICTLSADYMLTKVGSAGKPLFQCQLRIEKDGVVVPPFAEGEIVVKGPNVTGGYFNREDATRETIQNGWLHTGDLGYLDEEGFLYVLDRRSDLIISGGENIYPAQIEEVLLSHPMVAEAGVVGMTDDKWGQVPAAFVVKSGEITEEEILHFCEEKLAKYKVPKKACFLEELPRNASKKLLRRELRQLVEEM

SMILES: Nc1ncnc2c1ncn2[C@@H]1O[C@H](COP(=O)(O)OP(=O)(O)OP(=O)(O)O)[C@@H](O)[C@H]1O [ATP]
- kcat ([1]; pH 7.5, 21°C): 2.55 ± 0.0533 s⁻¹
- Km ([1]; pH 7.5, 21°C): 26.8 ± 2.7 µM
- Kd [2]: 131 ± 22 µM
- binding to free enzyme [2]: No significant binding

SMILES: Nc1ncnc2c1ncn2[C@@H]1O[C@H](COS(=O)(=O)NC(=O)CCC(=O)c2ccccc2C(F)(F)F)[C@@H](O)[C@H]1O [TFMP-butyl-AMS, 5’-O-(N-(2-trifluoromethylphenyl)-4-oxobutyl) adenosine sulfonamide]
- Ki / αKi values, range in words [3]: low micromolar; also recorded: lower micromolar range
- αKi (affinity to enzyme-ATP complex) [3]: 108 ± 17.0 µM
- Ki [3]: 5.6 µM and 5.2 µM
- whole cell activity [4]: limited whole cell activity

SMILES: CC(C)(COP(=O)(O)OP(=O)(O)OC[C@H]1O[C@@H](n2cnc3c(N)ncnc32)[C@H](O)[C@@H]1OP(=O)(O)O)[C@@H](O)C(=O)NCCC(=O)NCCSC(=O)c1ccccc1 [Benzoyl-CoA, benzoyl-CoA]
- Inhibition pattern [3]: mixed-type
- Ki / αKi values, range in words [3]: millimolar range
- αKi [3]: 15.3 ± 2.6 mM
- Ki [3]: 3000 ± 500 µM

SMILES: Nc1ncnc2c1ncn2[C@@H]1O[C@H](COP(=O)(O)O)[C@@H](O)[C@H]1O [AMP]
- Ki / αKi values, range in words [3]: millimolar range
- Ki [3]: 3600 µM and 4600 µM

SMILES: O=C(O)CCC(=O)c1ccccc1C(F)(F)F [Compound 5, 4-(2-trifluoromethylphenyl)-4-oxobutyric acid]
- reduction in kcat compared to OSB [1]: 10 fold
- remaining activity at 1000 µM ([1]; read-out: residual activity as substrate): 5.8%

SMILES: CC(C)(COP(=O)(O)OP(=O)(O)OC[C@H]1O[C@@H](n2cnc3c(N)ncnc32)[C@H](O)[C@@H]1OP(=O)(O)O)[C@@H](O)C(=O)NCCC(=O)NCCS [CoA]
- kcat ([1]; pH 7.5): 2.6 ± 0.075 s⁻¹
- Km [1]: 279 µM and 194 µM and 269 µM and 231 µM
- Km ([1]; pH 7.5): 304 ± 22.1 µM
- Km [3]: 49.9 µM and 66.2 µM and 39.3 µM
- binding to enzyme-Mg^2+ATP complex [2]: no significant binding
- binding to free enzyme [2]: no significant binding

SMILES: O=C(O)CCC(=O)c1ccccc1C(F)(F)F
- decrease in kcat/Km compared to OSB [1]: 100 fold

SMILES: O=C(O)CCC(=O)c1ccccc1C(=O)O [OSB, o-succinylbenzoate]
- kcat ([1]; pH 7.5, 21°C): 2.58 ± 0.06 s⁻¹
- Km ([1]; pH 7.5, 21°C): 21.9 ± 2 µM
- Km [3]: 3.6 µM and 2.8 µM
- binding to free enzyme [2]: no significant binding
